In series [1] the target is Apis mellifera bee venom (AmPLA2) (Apis mellifera, UniProt P00630). In words: biochemical.
The target of the next series is xanthine oxidase (Homo sapiens, UniProt P47989). In words: In vitro inhibition of xanthine oxidase. The class given is biochemical.
A further series addresses elastase. The series is described as follows: In vitro antiprotease activity. The note with it: 15 min preincubation. The class given is biochemical. Here is the method: (§1) The inhibitory effects of 21 3H-quinazolin-4-one derivatives on several available therapeutically important proteases such as cathepsin-B, collagenase, elastase, thrombin, and trypsin were investigated. […] The protease inhibitory activity was expressed as inhibition percentage, which was determined by comparison with a control experiment. The results were expressed as IC50 values that were determined from the standard curve. A protease inhibitor cocktail (Sigma) was used as the positive control.

The target of the next series is T1, trypsin (Bos taurus, UniProt P00760).
T1 construct: gene PRSS1
T1 sequence (P00760 24-246): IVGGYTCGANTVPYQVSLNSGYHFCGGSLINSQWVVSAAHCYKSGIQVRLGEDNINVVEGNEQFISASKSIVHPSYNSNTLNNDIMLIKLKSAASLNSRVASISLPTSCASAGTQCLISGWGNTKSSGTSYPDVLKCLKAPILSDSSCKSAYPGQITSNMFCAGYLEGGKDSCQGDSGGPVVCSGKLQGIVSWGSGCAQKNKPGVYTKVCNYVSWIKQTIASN
In words: In vitro antiprotease activity. Format: biochemical. As to conditions: 15 min preincubation; read-out: mean IC50 against Trypsin (converted). Here is the method:
as §1

For a further series, the target named is collagenase. The series is described as follows: In vitro antiprotease activity. The class given is biochemical. As to conditions: 15 min preincubation. The method, then:
as §1

For another series, the target named is thrombin (Homo sapiens, UniProt P00734). In words: In vitro antiprotease activity. Format: biochemical. The note with it: 15 min preincubation; read-out: mean IC50 against Thrombin (converted). The method, then: as §1
A further series deals with cathepsin-B (Homo sapiens, UniProt P07858). In words: In vitro antiprotease activity. As to conditions: 15 min preincubation; read-out: mean IC50 against Cathepsin-B (converted). The class given is biochemical. The method, then:
as §1

In series [2] the target is T2, human group IIA (hG-IIA) sPLA2 (Homo sapiens, UniProt P14555).
T2 sequence (P14555 21-144): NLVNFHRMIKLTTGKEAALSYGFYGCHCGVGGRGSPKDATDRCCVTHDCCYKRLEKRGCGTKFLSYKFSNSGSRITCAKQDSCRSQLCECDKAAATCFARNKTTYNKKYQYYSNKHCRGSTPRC
The series is described as follows: In vitro antiphospholipase activity. Format: biochemical.

For series [3], the target named is T3, human group X (hG-X) sPLA2 (Homo sapiens, UniProt O15496).
T3 sequence (O15496 43-165): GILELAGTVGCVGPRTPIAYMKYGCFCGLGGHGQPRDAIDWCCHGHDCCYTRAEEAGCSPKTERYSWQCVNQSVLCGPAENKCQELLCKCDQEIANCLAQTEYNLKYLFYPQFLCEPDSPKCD
The series is described as follows: In vitro antiphospholipase activity. The class given is biochemical. As to conditions: 20 min preincubation, lecithin substrate, pH 7.6; for IC50: read-out: mean IC50 against hG-X (converted).

For series [4], the target named is T4, human group V (hG-V) sPLA2 (Homo sapiens, UniProt P39877).
T4 sequence (P39877 21-138): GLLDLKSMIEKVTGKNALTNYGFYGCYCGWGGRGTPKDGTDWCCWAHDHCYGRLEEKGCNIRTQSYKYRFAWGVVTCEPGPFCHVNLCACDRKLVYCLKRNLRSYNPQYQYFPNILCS
In words: In vitro antiphospholipase activity. Format: biochemical. As to conditions: 20 min preincubation, lecithin substrate, pH 7.6; for IC50: read-out: mean IC50 against hG-V (converted).

In series [5] the target is Naja mossambica mossambica sPLA2 (NmPLA2). In words: In vitro antiphospholipase activity. Format: biochemical. The note with it: 20 min preincubation, lecithin substrate, pH 7.6.

Sequence of xanthine oxidase (P47989 whole entry, species assumed): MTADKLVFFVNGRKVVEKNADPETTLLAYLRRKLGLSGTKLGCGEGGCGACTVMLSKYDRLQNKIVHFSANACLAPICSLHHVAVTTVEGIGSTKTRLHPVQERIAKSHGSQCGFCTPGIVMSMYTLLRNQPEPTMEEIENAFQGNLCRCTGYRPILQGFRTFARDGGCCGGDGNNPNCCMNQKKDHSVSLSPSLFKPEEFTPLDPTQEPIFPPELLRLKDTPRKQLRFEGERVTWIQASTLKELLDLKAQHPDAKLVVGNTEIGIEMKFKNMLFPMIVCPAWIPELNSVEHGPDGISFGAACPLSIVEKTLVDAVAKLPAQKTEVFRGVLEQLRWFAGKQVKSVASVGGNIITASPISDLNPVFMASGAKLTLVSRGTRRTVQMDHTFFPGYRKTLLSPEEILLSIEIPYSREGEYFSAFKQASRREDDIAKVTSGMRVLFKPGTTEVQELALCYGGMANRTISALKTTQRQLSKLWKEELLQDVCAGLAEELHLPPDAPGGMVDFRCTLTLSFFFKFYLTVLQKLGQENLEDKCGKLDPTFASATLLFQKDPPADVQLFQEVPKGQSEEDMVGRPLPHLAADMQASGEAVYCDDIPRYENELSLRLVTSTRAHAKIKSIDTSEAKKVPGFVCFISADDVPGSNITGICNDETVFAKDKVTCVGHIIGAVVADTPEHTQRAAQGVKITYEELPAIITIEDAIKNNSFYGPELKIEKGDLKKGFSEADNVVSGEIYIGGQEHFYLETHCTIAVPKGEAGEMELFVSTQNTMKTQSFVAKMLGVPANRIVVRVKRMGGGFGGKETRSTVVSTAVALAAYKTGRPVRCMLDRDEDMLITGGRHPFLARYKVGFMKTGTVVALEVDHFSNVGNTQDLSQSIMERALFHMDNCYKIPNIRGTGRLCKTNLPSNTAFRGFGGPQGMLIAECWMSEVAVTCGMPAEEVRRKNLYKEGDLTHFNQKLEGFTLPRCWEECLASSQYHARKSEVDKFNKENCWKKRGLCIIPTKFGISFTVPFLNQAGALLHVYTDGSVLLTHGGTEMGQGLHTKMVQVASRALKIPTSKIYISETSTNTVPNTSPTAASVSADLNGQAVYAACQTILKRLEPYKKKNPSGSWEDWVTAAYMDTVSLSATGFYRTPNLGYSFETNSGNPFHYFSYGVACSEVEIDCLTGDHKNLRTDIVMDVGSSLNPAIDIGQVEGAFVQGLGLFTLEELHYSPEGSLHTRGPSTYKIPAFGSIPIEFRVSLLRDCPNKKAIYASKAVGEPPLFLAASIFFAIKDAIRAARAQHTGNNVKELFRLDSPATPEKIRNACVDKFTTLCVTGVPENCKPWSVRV
Sequence of Apis mellifera bee venom (AmPLA2) (P00630 34-167 limits assumed): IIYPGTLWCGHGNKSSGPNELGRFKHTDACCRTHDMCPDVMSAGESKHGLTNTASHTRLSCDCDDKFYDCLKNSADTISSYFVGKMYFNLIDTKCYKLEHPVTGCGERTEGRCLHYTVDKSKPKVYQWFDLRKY
Procedure for xanthine oxidase: The xanthine oxidase inhibitory activities of the examined chemical compounds were determined by following the formation of uric acid from xanthine according to the reported method by Bondet and co-workers[46]. […] The results were expressed as IC50 determined from the curve.

The IC50 is the concentration needed to halve the response being measured. Broadly, the melting point is the temperature of the solid-liquid transition. Compound `Cc1nc2ccccc2c(=O)n1/N=C/N(C)C` [Compound 12, (E)-N,N-dimethyl-N′-(2-methyl-4-oxo-4H-quinazolin-3-yl)-formamidine] returned a melting point of 100 to 102 °C. Half-maximal inhibition in [1] (IC50) was put at 122 µM. In addition, inhibition on xanthine oxidase was half-maximal at 91.2 µM (IC50). The “mean IC50 against Elastase” value on elastase was 8.50 ± 2.12 µg/mL. The IC50 on trypsin is 56.5 µM. Moreover, the “mean IC50 against Collagenase” value at collagenase came to 35.50 ± 2.12 µg/mL. Besides, at thrombin, the IC50 was 23.9 µM. Also, the IC50 on cathepsin-B was 119 µM. The same compound showed an IC50 in [2] of 200 µM. Besides, the IC50 in [3] was 141 µM. For the same compound, the half-inhibitory concentration (IC50) in series [4] was 150 µM. Moreover, the “mean IC50 against NmPLA2” value in series [5] was 35.00 ± 2.83 µg/mL.

On to `COc1cccc(/C=N/n2c(C)nc3ccccc3c2=O)c1[N+](=O)[O-]` [Compound 8e, (E)-3-[(3-Methoxy-2-nitro-benzylidene)-amino]-2-methyl-3H-quinazolin-4-one], for which the melting point is 178 to 180 °C. Besides, the 50% inhibitory concentration (IC50) in [1] is 22.5 µM. On xanthine oxidase, this compound showed an IC50 of 102 µM. The “mean IC50 against Elastase” value at elastase was determined as 1.25 ± 0.05 µg/mL. Also, the IC50 on trypsin is 2.51 µM. Besides, the “mean IC50 against Collagenase” value on collagenase turned out to be 15.50 ± 2.12 µg/mL. At thrombin, the IC50 is 4.43 µM. Further, the 50% inhibitory concentration (IC50) at cathepsin-B is 6.95 µM. Besides, the IC50 in series [2] was 49.1 µM. Also, the IC50 in [3] is 34.7 µM. Besides, the IC50 in [4] was 70.2 µM. Moreover, the “mean IC50 against NmPLA2” value in [5] was determined as 7.75 ± 0.35 µg/mL.

Regarding `CC1(C)CC[C@]2(C(=O)O)CC[C@]3(C)C(=CC[C@@H]4[C@@]5(C)CC[C@H](O)C(C)(C)[C@@H]5CC[C@]43C)[C@@H]2C1` [Oleanolic acid, reference compound], the IC50 in [1] is 9.2 µM. Moreover, the “mean IC50 against hG-X” value in series [3] was found to be 7.55 ± 0.64 µg/mL. In addition, the “mean IC50 against hG-V” value in series [4] was found to be 7.50 ± 0.71 µg/mL. Moreover, the “mean IC50 against NmPLA2” value in series [5] turned out to be 4.90 ± 0.42 µg/mL.

`Cc1ccc2nc(SCC(=O)Nc3cccc(C)c3C)n(-c3ccccc3)c(=O)c2c1` [Compound 15f, N-(2,3-Dimethyl-phenyl)-2-(6-methyl-4-oxo-3-phenyl-3,4-dihydro-quinazolin-2-ylsulfanyl) -acetamide] yielded a melting point of 218 to 220 °C. The compound further showed an IC50 in series [1] of 86.7 µM. For the same compound, on xanthine oxidase, inhibition was half-maximal at 136 µM (IC50). Besides, on elastase, the “mean IC50 against Elastase” value turned out to be 16.00 ± 1.41 µg/mL. Also, on trypsin, the IC50 was 39.6 µM. Moreover, the “mean IC50 against Collagenase” value on collagenase was determined as 10.50 ± 2.12 µg/mL. In addition, at thrombin, the IC50 is 40.7 µM. The IC50 at cathepsin-B was 9.31 µM. This compound gave an IC50 in series [2] of 90.8 µM. Besides, the half-maximal inhibitory concentration (IC50) in [3] was 51.2 µM. The IC50 in [4] is 70.1 µM. Also, in [5], the “mean IC50 against NmPLA2” value was 33.00 ± 2.83 µg/mL.

The compound `Cc1nc2ccc(Br)cc2c(=O)n1/N=C/c1ccc(-c2ccccn2)cc1` [Compound 8d, (E)-6-Bromo-2-methyl-3-[(4-pyridin-2-yl-benzylidene)-amino]-3H-quinazolin-4-one] had a melting point of 209 to 210 °C. Besides, the IC50 in [1] was 10.5 µM. At xanthine oxidase, this compound had an IC50 of 23.9 µM. For the same compound, on elastase, the “mean IC50 against Elastase” value turned out to be 26.00 ± 1.41 µg/mL. Further, at trypsin, the IC50 was 54.9 µM. Also, the “mean IC50 against Collagenase” value on collagenase stood at 3.00 ± 0.01 µg/mL. In addition, the IC50 on thrombin was 37 µM. For the same compound, the IC50 at cathepsin-B is 82.3 µM. Moreover, in [2], the IC50 is 13.7 µM. In addition, the IC50 in series [3] was 15.7 µM. Also, the half-inhibitory concentration (IC50) in series [4] was 22.3 µM. The “mean IC50 against NmPLA2” value in series [5] is 6.55 ± 0.78 µg/mL.

In turn, `Cc1nc2ccc(Br)cc2c(=O)n1/N=C/c1ccc(C#N)cc1` [Compound 8h, (E)-4-[(6-Bromo-2-methyl-4-oxo-4H-quinazolin-3-ylimino)-methyl]-benzonitrile] yielded a melting point of 228 to 230 °C. This compound also had a half-inhibitory concentration (IC50) in series [1] of 79 µM. For the same compound, the IC50 on xanthine oxidase is 154 µM. For the same compound, the “mean IC50 against Elastase” value at elastase came to 27.50 ± 2.12 µg/mL. The IC50 on trypsin was 91.2 µM. At collagenase, the “mean IC50 against Collagenase” value stood at 14.50 ± 2.12 µg/mL. Besides, the IC50 at thrombin is 66.7 µM. The 50% inhibitory concentration (IC50) on cathepsin-B was 10.9 µM. In addition, in [2], it took 120 µM to reach half-maximal inhibition (IC50). Moreover, the IC50 in [3] is 112 µM. Moreover, in [4], the IC50 was 92.6 µM. Besides, the “mean IC50 against NmPLA2” value in series [5] is 22.90 ± 1.27 µg/mL.

Turning to `Cc1cccc(NC(=O)CSc2nc3ccccc3c(=O)n2-c2ccccc2)c1C` [Compound 15e], the IC50 is 21.1 µM in series [1]; 98.7 µM against xanthine oxidase; 81.8 µM on trypsin; 57.8 µM on thrombin; 3.85 µM on cathepsin-B; 34.9 µM in series [2]. For the same compound, the IC50 in series [3] is 17.4 µM; in [4], 32.2 µM. In addition, the “mean IC50 against Elastase” value at elastase came to 31.50 ± 2.12 µg/mL. Also, at collagenase, the “mean IC50 against Collagenase” value is 4.50 ± 0.71 µg/mL. The “mean IC50 against NmPLA2” value in [5] is 11.00 ± 1.41 µg/mL.

`Cc1nc2ccccc2c(=O)n1NC(=O)OCC(C)C` [Compound 10, (2-methyl-4-oxo-4H-quinazolin-3-yl)-carbamic acid isobutyl ester] had a melting point of 168 to 170 °C. In addition, the IC50 in series [1] is 16.3 µM. This compound gave an IC50 against xanthine oxidase of 109 µM. The “mean IC50 against Elastase” value at elastase is 1.45 ± 0.21 µg/mL. Also, the IC50 on trypsin was 4 µM. Besides, at collagenase, the “mean IC50 against Collagenase” value is 28.00 ± 1.41 µg/mL. Besides, the IC50 on thrombin is 8.54 µM. Further, the IC50 at cathepsin-B was 81.7 µM. The compound also showed an IC50 in series [2] of 56.3 µM. Further, the IC50 in [3] is 34.5 µM. Moreover, the IC50 in [4] is 62.7 µM. In [5], the “mean IC50 against NmPLA2” value came out at 13.45 ± 0.78 µg/mL.

With `Cc1nc2ccccc2c(=O)n1/N=C/c1ccc(-c2ccccn2)cc1` [Compound 8c, (E)-2-Methyl-3-[(4-pyridin-2-yl-benzylidene)-amino]-3H-quinazolin-4-one], the melting point was 188 to 190 °C. Moreover, in series [1], the IC50 is 16.5 µM. The compound further showed an IC50 on xanthine oxidase of 11.8 µM. The “mean IC50 against Elastase” value at elastase was 32.00 ± 2.83 µg/mL. The IC50 at trypsin is 103 µM. Moreover, on collagenase, the “mean IC50 against Collagenase” value is 23.50 ± 0.71 µg/mL. Further, at thrombin, the IC50 is 69 µM. Moreover, the IC50 on cathepsin-B is 36.7 µM. This compound also had an IC50 in series [2] of 22.2 µM. In addition, the IC50 in series [3] is 69.8 µM. Moreover, the IC50 in series [4] is 30.8 µM. For the same compound, the “mean IC50 against NmPLA2” value in series [5] came to 7.60 ± 0.85 µg/mL.

For `Cc1nc2ccc(Br)cc2c(=O)n1/N=C/c1ccc2ccccc2c1` [Compound 8b, (E)-6-Bromo-2-methyl-3-[(naphthalen-2-ylmethylene)-amino]-3H-quinazolin-4-one], the IC50 in series [1] is 18.5 µM; against xanthine oxidase, 25.5 µM; on trypsin it was 65 µM; on thrombin, 42.1 µM; at cathepsin-B it was 54.8 µM; in series [2], 42.3 µM. The IC50 was 33.1 µM in [3] and 54.8 µM in series [4]. On elastase, the “mean IC50 against Elastase” value was 21.50 ± 2.12 µg/mL. The “mean IC50 against Collagenase” value on collagenase turned out to be 4.25 ± 1.06 µg/mL. In series [5], the “mean IC50 against NmPLA2” value was found to be 16.25 ± 1.06 µg/mL.

In the case of `Cc1nc2ccccc2c(=O)n1/N=C/c1ccc(-c2ccccc2)cc1` [Compound 8i], the IC50 in series [1] is 27.7 µM; against xanthine oxidase, 25 µM; on trypsin it was 36.8 µM; at thrombin, 51.6 µM; at cathepsin-B, 10.3 µM; in series [2] it was 45.4 µM. The IC50 in series [3] was 50.1 µM; in [4] it was 67.8 µM. At elastase, the “mean IC50 against Elastase” value is 13.50 ± 2.12 µg/mL. Besides, the “mean IC50 against Collagenase” value on collagenase turned out to be 15.25 ± 1.06 µg/mL. Also, the “mean IC50 against NmPLA2” value in [5] was 11.00 ± 1.41 µg/mL.
